# Source: paper PMC3917258, “6-Bromoisatin Found in Muricid Mollusc Extracts Inhibits Colon Cancer Cell Proliferation and Induces Apoptosis, Preventing Early Stage Tumor Formation in a Colorectal Cancer Rodent Model” (Marine Drugs, 2013)
# Tests used:
# [1] = test system: epithelial cells of distal colon; experiment: AARGC mouse model: apoptotic index; assay type: in vivo, mice (C57BL/6J)
# Method: (§1) This experiment was conducted under Flinders animal welfare approval number 751-10. A total of 38 wild-type (C57BL/6J) male mice aged 10 weeks were obtained from the Animal Resource Centre, Perth, Western Australia. Mice were divided randomly into 4 groups (ten mice in each treatment group and 8 mice in the sunflower oil only control group) and housed in 8 cages (four to five mice per cage). The mice were given water and food (rodent chow) ad libitum and maintained at the temperature of 22 ± 2 °C and humidity of 80% ± 10% with a 12 h light/dark cycle. Mice were weighed every five days and on the day of kill, and monitored daily for signs of illness, such as weight and hair loss, diarrhea, constipation, rectal bleeding, labored breathing, lethargy, eye and nose discharge.
# (§2) To detect the early stage prevention of colon cancer, an established AARGC rodent model with injection of the carcinogen AOM was used. Synthetic 6-bromoisatin at 3 different dosages (0.025, 0.05 and 0.1 mg/g body weight) was administered to mice by daily oral gavage in 100 µL sunflower oil, containing 0.02% Vitamin E, for two weeks. The control group was gavaged with sunflower oil (containing 0.02% Vitamin E) only. After two weeks, all mice were injected with a single intraperitoneal (i.p.) injection of AOM at a dosage of 10 mg/kg bodyweight and euthanized 6 h later by cervical dislocation under anesthesia. […] The distal colon of each mouse was excised and fixed in 10% buffered formalin for 24 h and then embedded in paraffin for histological and immunohistological examination.
# Distal colon segments were embedded in paraffin and sectioned at 4 µm (3–4 sections per mouse), then stained with hematoxylin, to evaluate apoptosis in epithelial cells of distal colon sections. The slides were examined under a light microscope (Olympus BH-2, Mt Waverly, VIC, Australia, 400× magnification) to identify the apoptotic cells, by characteristic morphological changes such as cell shrinkage, condensed chromatin and sharply delineated cell borders surrounded by an unstained halo [26, 49]. Twenty randomly chosen crypts were used to calculate the percent of apoptotic cells per crypt. The mean crypt column height was also determined.
# [2] = design: method as in PMID 20150770; details: low pH, simulated digestive fluid; cited from earlier work
# HT29 cells = experiment: Light microscopy of cell morphology (apoptosis); assay type: cell-based, human; details: 12 h
# Method: The cells were harvested from flasks by trypsinization (1× Trypsin-EDTA) and were seeded (20,000 cells/well) into clear 96-well plates (Costar®, Mt Martha, VIC, Australia) for measurement of cell viability and white (opaque) 96-well plates (Interpath, Heidelberg West, VIC, Australia) for determination of apoptosis and necrosis. HT29 cells were incubated for 48 h, then the media was removed and the cells were washed with PBS. To treat the cells, synthetic 6-bromoisatin was dissolved in 100% dimethylsulphoxide (DMSO) then diluted in media and added to the cells at a range of concentrations from 0.1 to 0.01 mg/mL, in triplicate (final DMSO concentration of 1%). 1% DMSO controls were also included on each plate. Staurosporine (5 µM) for apoptosis and lysis solution (5 μL/well, Promega, Alexandria, NSW, Australia) for necrosis were added to the white plates in triplicate, as positive controls. All cells were treated for 12 h. Morphological changes in the cells were observed on an Olympus CK2 inverted optical microscope (×400 magnification) 12 h after treatment. To measure cell viability, the MTT assay was applied, which measures the reduction of MTT tetrazolium salt to formazan, as previously described. To measure necrosis and apoptosis, CytoTox-ONE Homogeneous Membrane Integrity Assay reagent (Promega) and Caspase-Glo 3/7® assay (Promega) were applied respectively, according to our previous study. These assays were all repeated in triplicate on three separate occasions (n = 3).
# [3] = Body and liver weight of treated mice; assay type: in vivo, mice (C57BL/6J); details: mean ± S.E.; for Liver weight / Liver/Body (%): day of kill; for Total weight Gain / Body weight (Day1) / Body weight (Day5) / Body weight (Day10) / Body weight (Day14): mice
# Method: as §1, §2
# Plasma biochemistry = assay type: in vivo, mice (C57BL/6J)
# Method: as §2
# Blood samples (0.5–1 mL) were obtained from the mice under anesthesia by cardiac puncture at time of kill and transferred to Gribbles Veterinary Pathology laboratory, Adelaide within heparinized vacutainer tubes then centrifuged to separate into the cell layer for hematology analysis (Abbott Cell Dyn 3700 analyzer, North Ryde, NSW, Australia) and plasma for biochemistry analysis (Siemens Advia 1800 chemistry analyzer, Erlangen, Germany). The plasma levels of the liver enzymes AST, ALT and ALP were assessed as indicators of hepatotoxicity.
# [4] = 0.025 mg/g daily oral gavage 14 days
# [5] = 0.05 mg/g daily oral gavage 14 days
# [6] = 0.1 mg/g daily oral gavage 14 days
# [7] = 0.025 mg/g, n = 6, 6 h after AOM 10 mg/kg
# [8] = 0.05 mg/g, n = 6, 6 h after AOM 10 mg/kg
# [9] = 0.1 mg/g, n = 8, 6 h after AOM 10 mg/kg
structure (smiles),measurement,setting,value
"O=C1Nc2cc(Br)ccc2C1=O [6-bromoisatin, 6-Bromoindole-2,3-dione]",increase in apoptotic index over the oil control,"[1]; 0.05 mg/g daily oral gavage two weeks, distal colon, 6 h post AOM 10 mg/kg",2.3 fold
same,apoptotic index lower than the dose of 0.05 mg/g,"[1]; 0.1 mg/g daily oral gavage two weeks, distal colon",40%
same,apoptotic index,"[1]; 0.1 mg/g daily oral gavage two weeks, distal colon, compared with control",significantly induced apoptosis
same,apoptotic index,"[1]; lowest concentration (0.025 mg/g) daily oral gavage two weeks, compared to AOM injected control",not a significant difference
same,stability,[2],stable at low pH
same,cell morphology,HT29 cells; 112 μM,"morphological alterations, such as chromatin condensation, characteristic of the apoptotic process"
same,cell morphology,HT29 cells; 223 μM,"morphological alterations, such as chromatin condensation, characteristic of the apoptotic process"
same,cell morphology,"HT29 cells; 446 μM, in lower numbers than the two other doses",Apoptotic cells were also observed
same,Liver weight,[3]; [4],1.0 ± 0.1 g
same,Liver/Body (%),[3]; [4],4.4 ± 0.6%
same,Total weight Gain,[3]; [4],1.4 ± 0.8 g
same,Body weight (Day1),[3]; 0.025 mg/g daily oral gavage,22.2 ± 1.3 g
same,Body weight (Day5),[3]; 0.025 mg/g daily oral gavage,22.7 ± 1.3 g
same,Body weight (Day10),[3]; 0.025 mg/g daily oral gavage,23.0 ± 1.3 g
same,Body weight (Day14),[3]; 0.025 mg/g daily oral gavage,23.6 ± 1.4 g
same,Liver weight,[3]; [5],1.2 ± 0.1 g
same,Liver/Body (%),[3]; [5],5.2 ± 0.6%
same,Total weight Gain,[3]; [5],1.4 ± 1.0 g
same,Body weight (Day1),[3]; 0.05 mg/g daily oral gavage,22.6 ± 1.2 g
same,Body weight (Day5),[3]; 0.05 mg/g daily oral gavage,23.4 ± 1.2 g
same,Body weight (Day10),[3]; 0.05 mg/g daily oral gavage,23.4 ± 1.5 g
same,Body weight (Day14),[3]; 0.05 mg/g daily oral gavage,24.1 ± 1.6 g
same,Liver weight,[3]; [6],1.3 ± 0.1 g
same,Liver/Body (%),[3]; [6],5.3 ± 0.4%
same,Total weight Gain,[3]; [6],1.4 ± 0.8 g
same,Body weight (Day1),[3]; 0.1 mg/g daily oral gavage,22.3 ± 1.3 g
same,Body weight (Day5),[3]; 0.1 mg/g daily oral gavage,22.6 ± 1.3 g
same,Body weight (Day10),[3]; 0.1 mg/g daily oral gavage,23.3 ± 1.3 g
same,Body weight (Day14),[3]; 0.1 mg/g daily oral gavage,23.8 ± 1.6 g
same,Albumin,Plasma biochemistry; [7],28.7 ± 1.5 g/L
same,Calcium,Plasma biochemistry; [7],2.2 ± 0.1 mmol/L
same,Creat. (Creatinine),Plasma biochemistry; [7],13.3 ± 0.8 µmol/L
same,Globulin,Plasma biochemistry; [7],18.0 ± 1.4 g/L
same,NA/K (Sodium/Potassium ratio),Plasma biochemistry; [7],29.1 ± 1.2
same,Potassium,Plasma biochemistry; [7],5.1 ± 0.2 mmol/L
same,Protein,Plasma biochemistry; [7],46.7 ± 2.8 g/L
same,Sodium,Plasma biochemistry; [7],147.7 ± 0.5 mmol/L
same,Urea,Plasma biochemistry; [7],9.7 ± 1.6 mmol/L
same,Albumin,Plasma biochemistry; [8],27.8 ± 1.5 g/L
same,Calcium,Plasma biochemistry; [8],2.2 ± 0.04 mmol/L
same,Creat. (Creatinine),Plasma biochemistry; [8],14.7 ± 0.5 µmol/L
same,Globulin,Plasma biochemistry; [8],18.3 ± 0.8 g/L
same,NA/K (Sodium/Potassium ratio),Plasma biochemistry; [8],33.5 ± 2.7
same,Potassium,Plasma biochemistry; [8],4.5 ± 0.4 mmol/L
same,Protein,Plasma biochemistry; [8],46.2 ± 1.9 g/L
same,Sodium,Plasma biochemistry; [8],149.7 ± 1.4 mmol/L
same,Urea,Plasma biochemistry; [8],9.9 ± 1.4 mmol/L
same,Albumin,Plasma biochemistry; [9],28.2 ± 1.5 g/L
same,Calcium,Plasma biochemistry; [9],2.2 ± 0.1 mmol/L
same,Creat. (Creatinine),Plasma biochemistry; [9],14.6 ± 1.2 µmol/L
same,Globulin,Plasma biochemistry; [9],17.9 ± 1.2 g/L
same,NA/K (Sodium/Potassium ratio),Plasma biochemistry; [9],34.1 ± 3.6
same,Potassium,Plasma biochemistry; [9],4.3 ± 0.4 mmol/L
same,Protein,Plasma biochemistry; [9],46.1 ± 2.2 g/L
same,Sodium,Plasma biochemistry; [9],149.7 ± 1.2 mmol/L
same,Urea,Plasma biochemistry; [9],9.6 ± 1.2 mmol/L
